The target in assay [1] is T1, GST-tagged Tankyrase-1 (1023-1327 aa) (Homo sapiens, UniProt O95271).
T1 construct: GST-tagged Tankyrase-1 (1023-1327 aa)
Description: Tankyrase 1 autoparsylation HTRF enzyme assay. Format: biochemical. The note with it: read-out: IC50 TNKS1 enzyme assay. The protocol: (§1) Biochemical activity testing of Tankyrase 1 and 2: Autoparsylation assay
(§2) The autoparsylation assay is run in two steps: the enzymatic reaction in which GST-tagged Tankyrase-1, resp Tankyrase-2 transferred biotinylated ADP-ribose to itself from biotinylated NAD as co-substrate and the detection reaction where a time resolved FRET between cryptate labelled anti-GST bound to the GST tag of the enzyme and Xlent® labelled-streptavidin bound the biotin-parsylation residue is analysed. The autoparsylation activity was detectable directly via the increase in HTRF signal.
(§3) The autoparsylation assay is performed as 384-well HTRF® (Cisbio, Codolet, France) assay format in Greiner low volume nb 384-well microtiter plates and is used for high throughput screen. 250 nM GST-tagged Tankyrase-1 (1023-1327 aa), respectively about 250 nM GST-tagged Tankyrase-2 (873-1166 aa) and 5 μM bio-NAD (Biolog, Life science Inst., Bremen, Germany) as co-substrate are incubated in a total volume of 5 μl (50 mM HEPES, 4 mM Mg-chloride, 0.05% Pluronic F-68, 1.4 mM DTT, 0.5% DMSO, pH 7.7) in the absence or presence of the test compound (10 dilution concentrations) for 90 min at 30° C. The reaction is stopped by the addition of 1 μl 50 mM EDTA solution. 2 μl of the detection solution (1.6 μM SA-Xlent® (Cisbio, Codolet, France), 7.4 nM Anti-GST-K® (Eu-labelled anti-GST, Cisbio, Codolet, France) in 50 mM HEPES, 800 mM KF, 0.1% BSA, 20 mM EDTA, 0.1% CHAPS, pH 7.0) are added. After 1 h incubation at room temperature the HTRF is measured with an Envision multimode reader (Perkin Elmer LAS Germany GmbH) at excitation wavelength 340 nm (laser mode) and emission wavelengths 615 nm and 665 nm. The ratio of the emission signals is determined. The full value used is the inhibitor-free reaction. The pharmacological zero value used is XAV-939 (Tocris) in a final concentration of 5 μM. The inhibitory values (IC50) are determined using either the program Symyx Assay Explorer® or Condosseo® from GeneData.

The target of assay [2] is T2, GST-tagged Tankyrase-2 (873-1166 aa) (Homo sapiens, UniProt Q9H2K2).
T2 construct: GST-tagged Tankyrase-2 (873-1166 aa)
T2 sequence (Q9H2K2 873-1166): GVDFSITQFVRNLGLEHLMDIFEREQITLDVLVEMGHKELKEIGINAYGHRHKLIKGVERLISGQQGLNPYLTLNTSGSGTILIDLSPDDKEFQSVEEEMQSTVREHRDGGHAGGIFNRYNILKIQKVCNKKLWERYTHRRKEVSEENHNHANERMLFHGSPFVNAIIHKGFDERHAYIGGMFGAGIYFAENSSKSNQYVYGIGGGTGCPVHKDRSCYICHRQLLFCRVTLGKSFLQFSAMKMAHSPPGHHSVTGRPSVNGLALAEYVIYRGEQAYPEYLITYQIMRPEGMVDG
Description: Tankyrase 2 autoparsylation HTRF enzyme assay. To be noted: read-out: IC50 TNKS2 enzyme assay. Format: biochemical. The protocol: as §1, §2, §3

A further assay relates to Tankyrase. Description: Cellular inhibition of Tankyrase: Axin2 level in DLD1 cells (Luminex). The format is cell-based. To be noted: 24 hours, Axin2 increase, read-out: EC50 [M] TNKS cellular assay. The protocol: Measurement of Cellular Inhibition of Tankyrase
Since Tankyrases have been described to modulate cellular level of Axin2 (Huang et al., 2009; Nature) the increase of Axin2 level is used as read-out for determination of cellular inhibition of Tankyrases in a Luminex based assay.
Cells of the colon carcinoma cell line DLD1 are plated in 96 well plates with 1.5×10^4 cells per well. Next day, cells are treated with a serial dilution of test compound in seven steps as triplicates with a final DMSO concentration of 0.3%. After 24 hours, cells are lysed in lysis buffer (20 mM Tris/HCl pH 8.0, 150 mM NaCl, 1% NP40, 10% Glycerol) and lysates are cleared by centrifugation through a 96 well filter plate (0.65 μm). Axin2 protein is isolated from cell lysates by incubation with a monoclonal anti-Axin2 antibody (R&D Systems #MAB6078) that is bound to fluorescent carboxybeads. Then, bound Axin2 is specifically detected with a polyclonal anti-Axin2 antibody (Cell Signaling #2151) and an appropriate PE-fluorescent secondary antibody. The amount of isolated Axin2 protein is determined in a Luminex^200 machine (Luminex Corporation) according to the manufacturer's instruction by counting 100 events per well. Inhibition of Tankyrase by test compounds results in higher levels of Axin2 which directly correlates with an increase of detectable fluorescence. As controls cells are treated with solvent alone (neutral control) and with a Tankyrase reference inhibitor IWR-2 (3E-06 M) which refers as control for maximum increase of Axin2. For analysis, the obtained data are normalized against the untreated solvent control and fitted for determination of the EC50 values using the Assay Explorer software (Accelrys).

Assay [3] addresses T3, GST-tagged Tnks-1 (1023-1327 aa) (Homo sapiens, UniProt O95271).
T3 construct: GST-tagged Tnks-1 (1023-1327 aa, prepared in-house); made in house
Description: TNKS1 activity ELISA (autoparsylation assay). The format is biochemical. The protocol: (§4) Description of the TNKS1 and TNKS2 ELISA Assay
(§5) Biochemical Activity Testing of TNKS 1 and 2: Activity ELISA (Autoparsylation Assay)
(§6) For analysis of autoparsylation activity of TNKS 1 and 2 an activity ELISA iss performed: In the first step GST tagged TNKS is captured on a Glutathione coated plate. Then the activity assay with biotinylated NAD is performed in the absence/presence of the compounds. During the enzymatic reaction GST tagged TNKS transfers biotinylated ADP-ribose to itself from biotinylated NAD as co-substrate. For the detection streptavidin-HRP conjugate is added that binds to the biotinylated TNKS and is thereby captured to the plates. The amount of biotinylated resp. autoparsylated TNKS is detected with a luminescence substrate for HRP. The level of the luminescence signal correlates directly with the amount of autoparsylated TNKS and therefore with activity of TNKS.
(§7) The activity ELISA is performed in 384 well Glutathione coated microtiter plates (Express capture Glutathione coated plate, Biocat, Heidelberg, Germany). The plates are pre-equilibrated with PBS. Then the plates are incubated with 50 μl 20 ng/well GST-tagged Tnks-1 (1023-1327 aa, prepared in-house), respectively GST-tagged Tnks-2 (873-1166 aa, prepared in-house) in assay buffer (50 mM HEPES, 4 mM Mg-chloride, 0.05% Pluronic F-68, 2 mM DTT, pH 7.7) overnight at 4° C. The plates are washed 3 times with PBS-Tween-20. The wells are blocked by incubation at room temperature for 20 minutes with 50 μl blocking buffer (PBS, 0.05% Tween-20, 0.5% BSA). Afterwards the plates are washed 3 times with PBS-Tween-20. The enzymatic reaction is performed in 50 μl reaction solution (50 mM HEPES, 4 mM Mg-chloride, 0.05% Pluronic F-68, 1.4 mM DTT, 0.5% DMSO, pH 7.7) with 10 μM bio-NAD (Biolog, Life science Inst., Bremen, Germany) as co-substrate in the absence or presence of the test compound (10 dilution concentrations) for 1 hour at 30° C. The reaction is stopped by 3 times washing with PBS-Tween20. For the detection 50 μl of 20 ng/μl Streptavidin, HRP conjugate (MoBiTec, Göttingen, Germany) in PBS/0.05% Tween-20/0.01% BSA are added and the plates are incubated for 30 minutes at room temperature. After three times washing with PBS-Tween-20 50 μl of SuperSignal ELISA Femto Maximum sensitivity substrate solution (ThermoFisherScientific (Pierce), Bonn, Germany) are added. Following a 1 minute incubation at room temperature luminescence signals are measured with an Envision multimode reader (Perkin Elmer LAS Germany GmbH) at 700 nm. The full value used is the inhibitor-free reaction. The pharmacological zero value used is XAV-939 (Tocris) in a final concentration of 5 μM. The inhibitory values (IC50) are determined using either the program Symyx Assay Explorer® or Condosseo® from GeneData.

For assay [4], the target named is T4, GST-tagged Tnks-2 (873-1166 aa) (Homo sapiens, UniProt Q9H2K2).
T4 construct: GST-tagged Tnks-2 (873-1166 aa, prepared in-house); made in house
T4 sequence (Q9H2K2 873-1166): as above
Description: TNKS2 activity ELISA (autoparsylation assay). The format is biochemical. Here is the method:
as §4, §5, §6, §7

Some results are limits rather than exact numbers.

The record followed here is patent publication US9770446B2, “Piperidine urea derivatives” (MERCK PATENT GMBH, priority 2013, dated 2017).

T1 sequence (O95271 1023-1327): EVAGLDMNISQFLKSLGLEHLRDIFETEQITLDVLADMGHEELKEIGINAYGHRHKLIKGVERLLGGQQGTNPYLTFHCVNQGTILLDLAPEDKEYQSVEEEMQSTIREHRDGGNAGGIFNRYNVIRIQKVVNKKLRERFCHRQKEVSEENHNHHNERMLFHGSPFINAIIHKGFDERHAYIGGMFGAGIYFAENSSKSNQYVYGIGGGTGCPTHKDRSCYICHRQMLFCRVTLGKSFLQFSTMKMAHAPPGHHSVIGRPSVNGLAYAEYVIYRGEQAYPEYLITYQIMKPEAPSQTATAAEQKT
T3 sequence (O95271 1023-1327): as above

Regarding `COc1cccc(C(=O)C2CCN(C(=O)N(C)c3ccc(OC)nc3)CC2)c1` [Compound A47, 4-(3-methoxybenzoyl)-N-(6-methoxy-3-pyridyl)-N-methyl-piperidine-1-carboxamide], the IC50 in assay [1] is 300 to 3000 nM; in assay [2], 300 to 3000 nM; in assay [3], less than 300 nM; in assay [4], less than 300 nM. The EC50 with Tankyrase was 3e-07 to 3e-06 M.

With `COc1ccc(N(C)C(=O)N2CCC(C(=O)c3cccc(C)c3)CC2)cn1` [Compound A45, N-(6-methoxy-3-pyridyl)-N-methyl-4-(3-methylbenzoyl)piperidine-1-carboxamide], the IC50 in assay [1] was 300 to 3000 nM; in assay [2], 300 to 3000 nM; in assay [3], less than 300 nM; in assay [4] it was less than 300 nM. The EC50 with Tankyrase is less than 3e-07 M.

Consider `O=C(c1ccccc1)C1CCN(C(=O)N2CCCc3ccccc32)CC1` [Compound A22, (4-benzoyl-piperidin-1-yl)-(3,4-dihydro-2H-quinolin-1-yl)-methanone], for which the IC50 in assay [1] is 3000 to 50000 nM; in assay [2] it was 3000 to 50000 nM; in assay [3], 300 to 3000 nM; in assay [4] it was 300 to 3000 nM. Also, the EC50 with Tankyrase is 3e-06 to 5e-05 M.

Take `COc1ccc(C(=O)C2CCN(C(=O)N(C)c3ccc(OC)nc3)CC2)cc1` [Compound A49, 4-(4-methoxybenzoyl)-N-(6-methoxy-3-pyridyl)-N-methyl-piperidine-1-carboxamide]: the IC50 in assay [1] was less than 300 nM; in assay [2], 300 to 3000 nM; in assay [3], less than 300 nM; in assay [4] it was less than 300 nM. The EC50 with Tankyrase is less than 3e-07 M.

On to `CN(C(=O)N1CCC(C(=O)c2ccccc2)CC1)c1ccc(C#N)cc1` [Compound A11, 4-benzoyl-piperidine-1-carboxylic acid (4-cyano-phenyl)-methyl-amide], for which the IC50 in assay [1] was 300 to 3000 nM; in assay [2], 300 to 3000 nM; in assay [3], less than 300 nM; in assay [4], less than 300 nM. Further, the EC50 with Tankyrase was 3e-07 to 3e-06 M.

Turning to `COc1ccc(N(C)C(=O)N2CCC(C(=O)c3ccc(C)cc3)CC2)cn1` [Compound A46, N-(6-methoxy-3-pyridyl)-N-methyl-4-(4-methylbenzoyl)piperidine-1-carboxamide], the IC50 in assay [1] was 300 to 3000 nM; in assay [2] it was 300 to 3000 nM; in assay [3] it was less than 300 nM; in assay [4], less than 300 nM. Moreover, the EC50 in the assay on Tankyrase lay in the range of 3e-07 to 3e-06 M.

For `COc1cccc(N(C)C(=O)N2CCC(C(=O)c3ccccc3)CC2)c1` [Compound A3, 4-benzoyl-piperidine-1-carboxylic acid (3-methoxy-phenyl)-methyl-amide], the IC50 was 300 to 3000 nM in assay [1], 300 to 3000 nM in assay [2], less than 300 nM in assay [3] and less than 300 nM in assay [4]. Further, the EC50 in the assay on Tankyrase lay within 3e-07 to 3e-06 M.

In the case of `COc1ccc(N(C)C(=O)N2CCC(C(=O)c3ccc(F)cc3)CC2)cn1` [Compound A51, 4-(4-fluorobenzoyl)-N-(6-methoxy-3-pyridyl)-N-methyl-piperidine-1-carboxamide], the IC50 was 300 to 3000 nM in assay [1], 300 to 3000 nM in assay [2], less than 300 nM in assay [3] and less than 300 nM in assay [4]. Moreover, the EC50 in the assay on Tankyrase lay within 3e-07 to 3e-06 M.

In the case of `COc1ccc(N(C)C(=O)N2CCC(C(=O)c3ccc(OC)c(F)c3)CC2)cn1` [Compound A42, 4-(3-fluoro-4-methoxy-benzoyl)-N-(6-methoxy-3-pyridyl)-N-methyl-piperidine-1-carboxamide], the IC50 was less than 300 nM in assay [1], 300 to 3000 nM in assay [2], less than 300 nM in assay [3] and less than 300 nM in assay [4]. Besides, the EC50 with Tankyrase is less than 3e-07 M.

With `O=C(c1ccc(F)cc1)C1CCN(C(=O)N2CCc3ccccc32)CC1` [Compound A20, (2,3-dihydro-indol-1-yl)-[4-(4-fluoro-benzoyl)-piperidin-1-yl]-methanone], the IC50 in assay [1] is 300 to 3000 nM; in assay [2] it was 300 to 3000 nM; in assay [3], less than 300 nM; in assay [4], less than 300 nM. Moreover, the EC50 in the assay on Tankyrase was in the range of 3e-06 to 5e-05 M.

On to `CN(C(=O)N1CCC(C(=O)c2ccccc2)CC1)c1cccc(C#N)c1` [Compound A10, 4-benzoyl-piperidine-1-carboxylic acid (3-cyano-phenyl)-methyl-amide], for which the IC50 in assay [1] is 300 to 3000 nM; in assay [2], 3000 to 50000 nM; in assay [3], 300 to 3000 nM; in assay [4], less than 300 nM. The EC50 with Tankyrase lay within 3e-06 to 5e-05 M.
